US11491105B2, “Methods of treating microbial infections, including mastitis” (priority 2013, dated 2022)
In brackets after ≈: the same amount, converted by molar mass.

Legend:
[1] = tested on: Staphylococcus isolates (methicillin-sensitive and methicillin-resistant); assay: Minimum bactericidal concentration determination (Example 1); format: cell-based; conditions: for bactericidal activity (MBC testing): methicillin-sensitive and methicillin-resistant strains
Experimental: Following determination of the MIC using the 96 well MIC plate, a variation of the drop plate method was used to determine minimum bactericidal concentration (MBC) for each of the test compounds. These were analysed using samples taken from the MIC plate following incubation. For each compound, a 10 μL drop of each concentration equal to or higher than the MIC was pipetted onto Sheep Blood Agar in a clockwise manner (FIG. 3). Each concentration was pipetted in duplicate with duplicates being pipetted on an inner ring of drops. The plates were incubated at 37° C. overnight and assessed the following day for growth. The MBC was defined as the concentration at which 99.9% of colonies were eradicated, which was visually assessed by a lack of growth on the agar where the drop was placed. […] The MBC values for 50% and 90% of the isolates (MBC50 and MBC90) were calculated and assessed along with the MBC range in order to select compounds for further study.

[2] = tested on: Staphylococcus isolates (methicillin-sensitive and methicillin-resistant); assay: Minimum inhibitory concentration assay (Example 1); format: cell-based; conditions: for MIC50 and MIC90 values compared with ampicillin: methicillin-resistant isolates
Experimental: Forty-two isolates of Staphylococcus of varying species and strain type were collected from isolate collections. Biochemical testing including coagulase, latex agglutination testing for protein A, Vogues-Proskauer tests and resistance to polymyxin B were used to identify the species of Staphylococcus. All isolates were also screened for resistance to various antimicrobials commonly used for the treatment of infections. This was performed using the disk diffusion method and resistance standards as outlined by the CLSI. The following antimicrobials were used: amoxicillin-clavulanic acid (30 μg), cephalothin (30 μg), clindamycin (2 μg), enrofloxacin (5 μg), erythromycin (15 μg), gentamicin (10 μg), imipenem (10 μg), oxacillin (1 μg), penicillin G (10 units), tetracycline (30 μg), 1:19 trimethoprim-sulfamethoxazole (25 μg) and vancomycin (30 μg).
Minimum inhibitory concentration tests were performed according to CLSI Standards (CLSI 2012). 90 μL of one of the test compound solutions, or ampicillin, was added to the end column of a 96 well plate that contained 90 μL of CAMHB in each well. The solutions were then serially diluted across the row, leaving 2 columns for positive and negative controls (FIG. 2). A bacterial suspension was prepared by adding fresh colonies obtained from an overnight culture on Sheep Blood Agar (SBA) to a 9.1 g/L saline solution. This suspension was adjusted to a concentration of between 4×10^8 and 5×10^8 CFU/mL. Concentration of the suspension was determined by measuring optical density (OD) using a spectrophotometer at a wavelength of 600 nm where the correct concentration was determined to have an optical density of between 1.00 and 1.20. 1 mL of this suspension was added to 9 mL of saline before being added to all wells, excluding the negative control wells, in 10 μL volumes giving a final concentration of between 4×10^5 and 5×10^5 CFU/mL in each well. The tests were then incubated for 24 hours at 37° C. and then assessed both visually and using OD readings from a microplate reader at a wavelength of 600 nm. These tests were performed in duplicate but repeated if discrepancies were observed.
The minimum inhibitory concentration (MIC) was determined to be the lowest concentration of antibiotic that prevented growth of bacteria both visually and using OD readings. Direct statistical comparisons between the test compounds and ampicillin could not be performed in light of confidential information restrictions, such as restrictions on disclosure of information relating to the compound structure, such as molecular weight. Instead, MIC values were collated and used to determine the lowest concentration of each compound that was effective against 50% and 90% of isolates, referred to as the MIC50 and MIC90 respectively. These values as well as the range of MIC values were then used for direct comparisons between test compounds and for general comparisons with ampicillin.

[3] = tested on: bovine mastitis isolates; assay: Minimum inhibitory concentration assay (Example 3); format: cell-based
Text: Fifty-one dairy bovine mastitis isolates, encompassing a variety of bacterial species, were isolated from milk samples collected from dairy farms in rural South Australia by the University of Adelaide Ambulatory Clinic. Cellular morphology observed from Gram stains and catalase testing was used to differentiate Staphylococcus, Streptococcus and Corynebacterium species from Gram-negative species. Further biochemical testing including coagulase, Lancefield grouping, esculin hydrolysis and CAMP tests were used to identify the isolates to species level. Where biochemical test results were not definitive in identifying species, amplification and sequencing of the 16S ribosomal RNA gene was used to confirm the identity of the isolates.
Minimum inhibitory concentration tests were performed in the manner outlined by the CLSI (CLSI 2012). Test compounds were dispensed into a 96-well microtitre tray containing 90 μl of CAMHB in 90 μl volumes and serial diluted to obtain a concentration gradient ranging from 128 μg/ml to 0.25 μg/ml (see FIG. 24). For Streptococcus species, CAMHB was replaced with a CAMHB supplement with 4% lysed-sheep blood (4% LSB:CAMHB). 4% LSB:CAMHB was prepared by mixing 5 ml sheep blood to 5 ml milliQ water, and repeated freezing at −20° C. and thawing, followed by centrifuged for 20 min at 7000 rpm. 7 ml of the supernatant was removed and added to 93 mL of CAMB.
Bacterial suspensions were prepared by emulsifying fresh colonies obtained from an overnight culture on Sheep Blood Agar (SBA) in 4 mls of 9.1 g/l physiological saline to an optical density read at 600 nm (OD600nm) between 1.00 and 1.20. Standardised bacterial suspensions were diluted 1:10 in physiological saline and dispensed into all wells, excluding the negative control wells, in 10 μL volumes giving a final concentration of between 4×10^5 and 5×10^5 CFU/mL in each well. 96-well microtitre trays were incubated for 24 hours at 37° C. in 5% CO2 and then assessed both visually and using OD readings from a microplate reader at a wavelength of 600 nm. These tests were performed in duplicate and repeated if discrepancies in MIC values were observed between replicates.
The minimum inhibitory concentration (MIC) was determined to be the lowest concentration of antibiotic that prevented growth of bacteria both visually and using OD readings. MIC values were collated and used to determine the lowest concentration of each compound effective against 50% and 90% of isolates, known as the MIC50 and MIC90 respectively. These values as well as the range of MIC values were then used for direct comparisons between test compounds and for general comparisons with ampicillin.

[4] = Dilution in Cation Adjusted Mueller Hinton Broth; format: physicochemical
Experimental: For each of the five test compounds, a […] stock solution was created by dissolving 2.56 grams of compound in 10 ml of dimethyl sulfoxide (DMSO). The resulting solution was then aliquoted into 500 μL volumes and stored at −80° C. A […] stock solution of ampicillin was also created by dissolving 0.303 grams of ampicillin (Sigma A-0166) in 10 ml of DMSO. This solution was aliquoted and stored in the same manner as the five test compounds. When these compounds were required, a 256 μg/ml working solution was created by diluting 100 μl of stock solution (25.6 mg/ml) in 9.9 ml of Cation-Adjusted Mueller Hinton Broth (CAMHB)
LP4525 had the most consistent MIC values for all isolates, and this is evidenced by the small MIC range. LP4525 also has a lower MIC90 value compared to all compounds.

[5] = tested on: MRSA 9; assay: Microdilution time-kill assay; format: cell-based, Staphylococcus aureus; conditions: 48 hours
Experimental: Following assessment of MIC and MBC results, two compounds were chosen for analysis using microdilution time-kill assays, LP 1369 and LP 6315 and these were compared to ampicillin. Time-kill assays were performed according to the M26-A guidelines of the CLSI, with modifications. The test compounds and ampicillin were serial diluted in CAMHB across the rows of a 96 well plate and a bacterial suspension was prepared and added in the same manner as the MIC testing. […] The time points assessed were 0, 1, 2, 4, 8, 12, 24 and 48 hours after the addition of the bacterial suspension to the wells. Each test compound was tested in triplicate while ampicillin was tested in duplicate and this test was independently repeated. The bacterial strains used for the microdilution assays were chosen based on bactericidal activity evident during MBC testing. One strain from each of the categories of Staphylococcus in the isolate collection (methicillin-sensitive, methicillin resistant and coagulase negative) were selected as well as the ATCC reference strain for comparison. These strains were strains MSS 1, MSS 11, MRSA 9 and the ATCC 49775 reference strain.

[6] = tested on: ATCC 49775 reference strain; assay: Macrodilution time-kill assay; format: cell-based, Staphylococcus; conditions: 24 hours
Experimental: (§1) Due to the detection limit of the OD measurements, the time-kill assays were also performed in macrodilution. In 15 mL tubes, 9 mL volumes of the test compounds in CAMHB were prepared at one, four and eight times the MIC concentration and 9 mL volumes of ampicillin were prepared in CAMHB at one and four times the MIC. 1 mL of a 4 to 5×10^6 bacterial suspension (as prepared for MIC testing) was added to each of the tubes as well as a growth control tube containing only 9 mL of CAMHB. These tubes were incubated at 37° C. in an orbital shaker rotating at 100 rpm for 24 hours. At 0, 1, 4, 8, 12 and 24 hours after addition of the bacteria, 100 μL samples were removed from each tube and serial diluted in 9.1 g/L saline solution. The dilutions were then plated in duplicate onto plate count agar and incubated for 24 hours at 37° C. After incubation, viable counts were obtained from the number of colonies visible on the agar and these were used to calculate the number of CFU/mL at each time point. For the macrodilution time-kill analysis, only the ATCC 49775 reference strain and MRSA 9 were assessed in order to further investigate the antibacterial activity against methicillin-resistant strains. These macrodilution time-kill assays were independently repeated and bactericidal activity was defined as a ≥3 log decrease in the number of CFU/mL.

[7] = tested on: MRSA 9; assay: Macrodilution time-kill assay; format: cell-based, Staphylococcus aureus; conditions: 24 hours
Experimental: as §1

[8] = dogs; cited from earlier work
[9] = accidental inhalation and swallowing of about 1 mg/kg, human; cited from earlier work
[10] = humans; cited from earlier work
[11] = 51 Australian bovine mastitis isolates

| Compound | strains against which bactericidal activity was exhibited more consistently [1] | bactericidal activity (MBC testing) [1] | MIC50 and MIC90 values compared with ampicillin [2] | MIC values (in words) [3] | antibacterial activity against the bovine mastitis isolates [3] | MIC50 [3, 11] [µg/mL] | MIC90 [3, 11] [µg/mL] | MIC90 value and MIC range (in words) ([2]; all strains) | turbidity or precipitate upon dilution [4] | MIC90 values for each of the groups of mastitis pathogens (in words) ([3]; compared with the other compounds) | resulting growth after 48 hours [5] | bactericidal or bacteriostatic (>=3 log decrease in CFU/mL = bactericidal) ([6]; LP 6315: most concentrations) | decrease in the number of viable bacteria ([6]; all concentrations tested) [log10] | bactericidal or bacteriostatic (>=3 log decrease in CFU/mL = bactericidal) ([7]; LP 6315: most concentrations) | decrease in the number of viable bacteria ([7]; all concentrations tested) [log10] | daily intake that leads to neurotoxic effects (myelin loss, axonal degeneration) [8] | toxicity after accidental exposure [9] | acceptable daily intake (ADI) [10] [µg/kg] |
| --- | --- | --- | --- | --- | --- | --- | --- | --- | --- | --- | --- | --- | --- | --- | --- | --- | --- | --- |
| Narasin [LP 4525] | methicillin-sensitive strains | some bactericidal activity in lower concentrations | considerably lower than ampicillin | low MIC values | observed | 0.25 | 1 |  |  |  |  |  |  |  |  |  |  |  |
| CC[C@@]1([C@@H]2O[C@@H]([C@H]3O[C@@](O)(CO)[C@H](C)C[C@@H]3C)C[C@@H]2C)CC[C@H]([C@]2(C)CC[C@]3(C[C@H](O)[C@@H](C)[C@@H]([C@@H](C)[C@@H](OC)[C@H](C)C(=O)O)O3)O2)O1 [LP 9666, Monensin] |  |  | considerably lower than ampicillin |  | observed |  | 128 (≈ 191 µM) | high MIC90 value and broad MIC range | large amount of precipitate | significantly higher |  |  |  |  |  |  |  |  |
| CC1(C)S[C@@H]2[C@H](NC(=O)[C@H](N)c3ccccc3)C(=O)N2[C@H]1C(=O)O [ampicillin] |  |  |  |  |  |  |  |  |  |  | comparable to the growth control | bactericidal | > 3 | bactericidal | > 3 |  |  |  |
| CC[C@@H](C(=O)[C@@H](C)[C@@H](O)[C@H](C)[C@@H]1O[C@@H]([C@@H](CC)C(=O)O)CC[C@@H]1C)[C@H]1O[C@]2(C=C[C@@H](O)[C@]3(CC[C@@](C)([C@H]4CC[C@](O)(CC)[C@H](C)O4)O3)O2)[C@H](C)C[C@@H]1C [LP 1088, Salinomycin] | methicillin-sensitive strains | some bactericidal activity in lower concentrations | considerably lower than ampicillin | low MIC values | observed |  | 2 (≈ 2.66 µM) |  |  |  |  |  |  |  |  | more than 500 μg/kg | severe acute and chronic salinomycin toxicity | 5 |
